This is an account of results in patent US9062124B2, “GIP-based mixed agonists for treatment of metabolic disorders and obesity” (priority 2008, dated 2015).

Where a SMILES comes first, the peptide text is derived from it. Bridges are numbered along the chain shown (N, C = ends).

Holding throughout (type): cell-based
In one experiment the target is T1, glucagon receptor (Homo sapiens, UniProt P47871).
T1 construct: expressed in transfected cells; host or cells: HEK293
In words: cAMP synthesis functional assay (firefly luciferase reporter in HEK293 cells), glucagon receptor. As to conditions: Table 1; for EC50: Glucagon Receptor EC50, nM; for Glucagon Receptor relative activity: relative to the native hormone of the indicated receptor. A general note: A reporter such as luciferase makes a cellular process visible.

For another experiment, the target named is T2, GLP-1 receptor (Homo sapiens, UniProt P43220).
T2 construct: expressed in transfected cells; host or cells: HEK293
In words: cAMP synthesis functional assay (firefly luciferase reporter in HEK293 cells), GLP-1 receptor. The note with it: Table 1; relative to the native hormone of the indicated receptor.

The target of a further experiment is T3, GIP receptor (Homo sapiens, UniProt P48546).
T3 construct: expressed in transfected cells; host or cells: HEK293
T3 sequence (P48546 22-466): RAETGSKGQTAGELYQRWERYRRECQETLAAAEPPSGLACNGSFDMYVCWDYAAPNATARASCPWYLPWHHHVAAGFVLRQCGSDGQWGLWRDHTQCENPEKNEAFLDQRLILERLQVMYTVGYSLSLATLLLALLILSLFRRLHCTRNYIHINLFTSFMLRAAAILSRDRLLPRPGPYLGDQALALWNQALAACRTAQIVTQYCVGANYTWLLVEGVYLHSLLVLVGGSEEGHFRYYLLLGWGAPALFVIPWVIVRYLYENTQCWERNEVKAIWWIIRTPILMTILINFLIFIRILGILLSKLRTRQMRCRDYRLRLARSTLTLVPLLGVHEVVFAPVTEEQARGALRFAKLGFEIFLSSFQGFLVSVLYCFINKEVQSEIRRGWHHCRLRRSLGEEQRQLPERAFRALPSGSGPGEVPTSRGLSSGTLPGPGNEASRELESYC
In words: cAMP synthesis functional assay (firefly luciferase reporter in HEK293 cells), GIP receptor. The note with it: Table 1; for GIP Receptor relative activity: relative to the native hormone of the indicated receptor.

T1 sequence (P47871 26-477): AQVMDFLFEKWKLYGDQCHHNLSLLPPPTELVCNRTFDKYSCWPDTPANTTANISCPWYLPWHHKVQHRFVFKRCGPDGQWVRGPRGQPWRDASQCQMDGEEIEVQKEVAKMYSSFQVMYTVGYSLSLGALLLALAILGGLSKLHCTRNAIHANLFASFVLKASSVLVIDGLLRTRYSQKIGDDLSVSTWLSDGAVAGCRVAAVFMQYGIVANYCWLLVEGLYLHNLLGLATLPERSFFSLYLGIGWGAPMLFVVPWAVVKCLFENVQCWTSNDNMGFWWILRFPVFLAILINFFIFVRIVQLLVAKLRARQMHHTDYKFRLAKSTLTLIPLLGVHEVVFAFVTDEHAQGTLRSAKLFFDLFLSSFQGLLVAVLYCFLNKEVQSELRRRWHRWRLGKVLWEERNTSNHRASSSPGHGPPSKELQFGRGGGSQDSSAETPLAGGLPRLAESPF
T2 sequence (P43220 24-463, species assumed): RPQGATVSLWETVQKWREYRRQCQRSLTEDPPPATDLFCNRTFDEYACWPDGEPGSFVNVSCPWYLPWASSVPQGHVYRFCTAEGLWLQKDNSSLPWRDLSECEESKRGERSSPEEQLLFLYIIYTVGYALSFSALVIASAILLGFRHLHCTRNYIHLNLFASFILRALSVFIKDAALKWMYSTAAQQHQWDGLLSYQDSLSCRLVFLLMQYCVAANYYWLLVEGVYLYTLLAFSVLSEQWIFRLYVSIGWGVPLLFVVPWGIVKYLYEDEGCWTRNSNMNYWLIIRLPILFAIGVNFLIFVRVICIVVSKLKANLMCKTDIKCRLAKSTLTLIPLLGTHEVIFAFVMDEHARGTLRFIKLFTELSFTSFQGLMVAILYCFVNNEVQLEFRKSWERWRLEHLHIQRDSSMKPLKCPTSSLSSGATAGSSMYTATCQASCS

The term EC50 denotes the concentration at which the effect is half-maximal. High values mean a less potent agent, low ones a more potent agent. On to `CC[C@H](C)[C@H](NC(=O)[C@H](Cc1ccccc1)NC(=O)[C@H](CCC(=O)O)NC(=O)[C@@H]1CCC(=O)NCCCC[C@H](NC(=O)[C@H](CC(=O)O)NC(=O)[C@H](CC(C)C)NC(=O)[C@H](Cc2ccc(O)cc2)NC(=O)[C@H](CCCCN)NC(=O)[C@H](CO)NC(=O)[C@H](Cc2ccc(O)cc2)NC(=O)[C@H](CC(=O)O)NC(=O)[C@H](CO)NC(=O)[C@@H](NC(=O)[C@H](Cc2ccccc2)NC(=O)[C@@H](NC(=O)CNC(=O)[C@H](CCC(N)=O)NC(=O)[C@H](CO)NC(=O)[C@@H](N)Cc2c[nH]cn2)[C@@H](C)O)[C@@H](C)O)C(=O)N[C@@H]([C@@H](C)CC)C(=O)N[C@@H](Cc2c[nH]cn2)C(=O)N[C@@H](CCC(N)=O)C(=O)N1)C(=O)N[C@@H](C)C(=O)N[C@@H](Cc1c[nH]c2ccccc12)C(=O)N[C@@H](CC(C)C)C(=O)N[C@@H](CCSC)C(=O)N[C@@H](CC(N)=O)C(=O)N[C@H](C(N)=O)[C@@H](C)O` [mt-69] (H-HSQGTFTSDYSKYLDKIHQEEFIAWLMNT-NH2; lactam 16-20; N-terminus assumed), for which the EC50 came to 0.16 nM at glucagon receptor and 14.6 nM on GIP receptor (GIP Receptor EC50, nM). Besides, the “Glucagon Receptor relative activity” value at glucagon receptor came to 162.50%. For the same compound, the “GLP-1 Receptor relative activity” value on GLP-1 receptor is listed as 12.20%. Besides, the “GIP Receptor relative activity” value on GIP receptor was determined as 0.57%.
For the compound `CC[C@H](C)[C@H](NC(=O)[C@H](CO)NC(=O)[C@H](Cc1ccc(O)cc1)NC(=O)[C@H](CC(=O)O)NC(=O)[C@H](CO)NC(=O)[C@@H](NC(=O)[C@H](Cc1ccccc1)NC(=O)[C@@H](NC(=O)CNC(=O)[C@H](CCC(=O)O)NC(=O)[C@H](C)NC(=O)[C@@H](N)Cc1c[nH]cn1)[C@@H](C)O)[C@@H](C)CC)C(=O)N[C@@H](C)C(=O)N[C@@H](CCSC)C(=O)N[C@@H](CC(=O)O)C(=O)N[C@H]1CCC(=O)NCCCC[C@@H](C(=O)N[C@@H](CC(=O)O)C(=O)N[C@@H](Cc2ccccc2)C(=O)N[C@H](C(=O)N[C@@H](CC(N)=O)C(=O)N[C@@H](Cc2c[nH]c3ccccc23)C(=O)N[C@@H](CC(C)C)C(=O)N[C@@H](CC(C)C)C(=O)N[C@@H](C)C(=O)N[C@@H](CCC(N)=O)C(N)=O)C(C)C)NC(=O)[C@H](CCC(N)=O)NC(=O)[C@H](Cc2c[nH]cn2)NC(=O)[C@H]([C@@H](C)CC)NC1=O` [mt-95] (H-HAEGTFISDYSIAMDEIHQKDFVNWLLAQ-NH2; lactam 16-20; N-terminus assumed), the “Glucagon Receptor relative activity” value at glucagon receptor came to 0.04%. The “GLP-1 Receptor relative activity” value on GLP-1 receptor turned out to be 0.08%. Also, the “GIP Receptor relative activity” value on GIP receptor is on record as 10.54%.
In the same order, the values of `CC[C@H](C)[C@H](NC(=O)[C@H](CO)NC(=O)[C@H](Cc1ccc(O)cc1)NC(=O)[C@H](CC(=O)O)NC(=O)[C@H](CO)NC(=O)[C@@H](NC(=O)[C@H](Cc1ccccc1)NC(=O)[C@@H](NC(=O)CNC(=O)[C@H](CCC(=O)O)NC(=O)[C@H](C)NC(=O)[C@@H](N)Cc1ccc(O)cc1)[C@@H](C)O)[C@@H](C)CC)C(=O)N[C@@H](C)C(=O)N[C@@H](CCSC)C(=O)N[C@@H](CC(=O)O)C(=O)N[C@H]1CCC(=O)NCCCC[C@@H](C(=O)N[C@@H](CC(=O)O)C(=O)N[C@@H](Cc2ccccc2)C(=O)N[C@H](C(=O)N[C@@H](CC(N)=O)C(=O)N[C@@H](Cc2c[nH]c3ccccc23)C(=O)N[C@@H](CC(C)C)C(=O)N[C@@H](CC(C)C)C(=O)N[C@@H](C)C(=O)N[C@@H](CCC(N)=O)C(N)=O)C(C)C)NC(=O)[C@H](CCC(N)=O)NC(=O)[C@H](Cc2c[nH]cn2)NC(=O)[C@H]([C@@H](C)CC)NC1=O` [mt-96] (H-YAEGTFISDYSIAMDEIHQKDFVNWLLAQ-NH2; lactam 16-20; N-terminus assumed) are 0.29%, 0.04% and 84.48%.
On to `CC[C@H](C)[C@H](NC(=O)[C@H](CO)NC(=O)[C@H](Cc1ccc(O)cc1)NC(=O)[C@H](CC(=O)O)NC(=O)[C@H](CO)NC(=O)[C@@H](NC(=O)[C@H](Cc1ccccc1)NC(=O)[C@@H](NC(=O)CNC(=O)[C@H](CCC(=O)O)NC(=O)[C@H](C)NC(=O)[C@@H](N)Cc1c[nH]cn1)[C@@H](C)O)[C@@H](C)O)C(=O)N[C@@H](Cc1ccc(O)cc1)C(=O)N[C@@H](CCSC)C(=O)N[C@@H](CC(=O)O)C(=O)N[C@H]1CCC(=O)NCCCC[C@@H](C(=O)N[C@@H](CC(=O)O)C(=O)N[C@@H](Cc2ccccc2)C(=O)N[C@H](C(=O)N[C@@H](CC(N)=O)C(=O)N[C@@H](Cc2c[nH]c3ccccc23)C(=O)N[C@@H](CC(C)C)C(=O)N[C@@H](CC(C)C)C(=O)N[C@@H](C)C(=O)N[C@@H](CCC(N)=O)C(N)=O)C(C)C)NC(=O)[C@H](CCC(N)=O)NC(=O)[C@H](Cc2c[nH]cn2)NC(=O)[C@H]([C@@H](C)CC)NC1=O` [mt-97] (H-HAEGTFTSDYSIYMDEIHQKDFVNWLLAQ-NH2; lactam 16-20; N-terminus assumed), for which the “Glucagon Receptor relative activity” value on glucagon receptor turned out to be 3.19%. Further, the “GLP-1 Receptor relative activity” value on GLP-1 receptor was 1.27%. Further, at GIP receptor, the “GIP Receptor relative activity” value amounted to 2.81%.
Turning to `CC[C@H](C)[C@H](NC(=O)[C@H](CO)NC(=O)[C@H](Cc1ccc(O)cc1)NC(=O)[C@H](CC(=O)O)NC(=O)[C@H](CO)NC(=O)[C@@H](NC(=O)[C@H](Cc1ccccc1)NC(=O)[C@@H](NC(=O)CNC(=O)[C@H](CCC(=O)O)NC(=O)[C@H](C)NC(=O)[C@@H](N)Cc1ccc(O)cc1)[C@@H](C)O)[C@@H](C)O)C(=O)N[C@@H](Cc1ccc(O)cc1)C(=O)N[C@@H](CCSC)C(=O)N[C@@H](CC(=O)O)C(=O)N[C@H]1CCC(=O)NCCCC[C@@H](C(=O)N[C@@H](CC(=O)O)C(=O)N[C@@H](Cc2ccccc2)C(=O)N[C@H](C(=O)N[C@@H](CC(N)=O)C(=O)N[C@@H](Cc2c[nH]c3ccccc23)C(=O)N[C@@H](CC(C)C)C(=O)N[C@@H](CC(C)C)C(=O)N[C@@H](C)C(=O)N[C@@H](CCC(N)=O)C(N)=O)C(C)C)NC(=O)[C@H](CCC(N)=O)NC(=O)[C@H](Cc2c[nH]cn2)NC(=O)[C@H]([C@@H](C)CC)NC1=O` [mt-98] (H-YAEGTFTSDYSIYMDEIHQKDFVNWLLAQ-NH2; lactam 16-20; N-terminus assumed), at glucagon receptor, the “Glucagon Receptor relative activity” value worked out at 0.01%. Moreover, on GLP-1 receptor, the “GLP-1 Receptor relative activity” value amounted to 1.42%. Moreover, the “GIP Receptor relative activity” value on GIP receptor is 25.00%.
Turning to `CC[C@H](C)[C@H](NC(=O)[C@H](CO)NC(=O)[C@H](Cc1ccc(O)cc1)NC(=O)[C@H](CC(=O)O)NC(=O)[C@H](CO)NC(=O)[C@@H](NC(=O)[C@H](Cc1ccccc1)NC(=O)[C@@H](NC(=O)CNC(=O)[C@H](CCC(=O)O)NC(=O)[C@H](C)NC(=O)[C@@H](N)Cc1ccc(O)cc1)[C@@H](C)O)[C@@H](C)CC)C(=O)N[C@@H](C)C(=O)N[C@@H](CCSC)C(=O)N[C@@H](CC(=O)O)C(=O)N[C@@H](CCCCN)C(=O)N[C@H](C(=O)N[C@@H](Cc1c[nH]cn1)C(=O)N[C@@H](CCC(N)=O)C(=O)N[C@@H](CCC(N)=O)C(=O)N[C@@H](CC(=O)O)C(=O)N[C@@H](Cc1ccccc1)C(=O)N[C@H](C(=O)N[C@@H](CC(N)=O)C(=O)N[C@@H](Cc1c[nH]c2ccccc12)C(=O)N[C@@H](CC(C)C)C(=O)N[C@@H](CC(C)C)C(=O)N[C@@H](C)C(=O)N[C@@H](CCC(N)=O)C(=O)N[C@@H](CCCCN)C(=O)NCC(=O)N[C@@H](CCCCN)C(=O)N[C@@H](CCCCN)C(=O)N[C@@H](CC(N)=O)C(=O)N[C@@H](Cc1c[nH]c2ccccc12)C(=O)N[C@@H](CC(C)C)C(=O)N[C@@H](CCCCN)C(=O)N[C@@H](Cc1c[nH]cn1)C(=O)N[C@@H](CC(N)=O)C(=O)N[C@H](C(=O)N[C@H](C(=O)N[C@@H](CCC(N)=O)C(N)=O)[C@@H](C)O)[C@@H](C)CC)C(C)C)[C@@H](C)CC` [mt-99], the “Glucagon Receptor relative activity” value on glucagon receptor amounted to 0.00%. For the same compound, the “GLP-1 Receptor relative activity” value on GLP-1 receptor is recorded as 0.00%. Further, at GIP receptor, the “GIP Receptor relative activity” value is 100.00%.
As to `CC[C@H](C)[C@H](NC(=O)[C@H](Cc1ccccc1)NC(=O)[C@H](CCC(=O)O)NC(=O)[C@@H]1CCCCNC(=O)CC[C@H](NC(=O)[C@H](CC(=O)O)NC(=O)[C@H](CC(C)C)NC(=O)[C@H](Cc2ccc(O)cc2)NC(=O)[C@H](CCCCN)NC(=O)[C@H](CO)NC(=O)[C@H](Cc2ccc(O)cc2)NC(=O)[C@H](CC(=O)O)NC(=O)[C@H](CO)NC(=O)[C@@H](NC(=O)[C@H](Cc2ccccc2)NC(=O)[C@@H](NC(=O)CNC(=O)[C@H](CCC(N)=O)NC(=O)[C@H](CO)NC(=O)[C@@H](N)Cc2c[nH]cn2)[C@@H](C)O)[C@@H](C)CC)C(=O)N[C@@H]([C@@H](C)CC)C(=O)N[C@@H](Cc2c[nH]cn2)C(=O)N[C@@H](CCC(N)=O)C(=O)N1)C(=O)N[C@@H](C)C(=O)N[C@@H](Cc1c[nH]c2ccccc12)C(=O)N[C@@H](CC(C)C)C(=O)N[C@@H](CCSC)C(=O)N[C@@H](CC(N)=O)C(=O)N[C@H](C(N)=O)[C@@H](C)O` [mt-107] (H-HSQGTFISDYSKYLDEIHQKEFIAWLMNT-NH2; lactam 16-20; N-terminus assumed), at glucagon receptor, a half-maximal effect (EC50) was put at 0.07 nM and the “Glucagon Receptor relative activity” value was determined as 185.71%. On GLP-1 receptor, the “GLP-1 Receptor relative activity” value was found to be 0.16%. Besides, the “GIP Receptor relative activity” value on GIP receptor is reported as 0.74%.
